Measured values from ChEMBL document CHEMBL4808180, “Identification of 2,2-Dimethylbutanoic Acid (HST5040), a Clinical Development Candidate for the Treatment of Propionic Acidemia and Methylmalonic Acidemia” (J Med Chem, 2021).

Columns and labels:
[1] = Drug excretion in Gottingen minipig urine at 10 mg/kg, po using radiolabeled compound by quantitative whole-body autoradiography; type: ADME, organism-based, Sus scrofa domesticus; settings: pig, in vivo, 96 h
[2] = Drug metabolism in Sprague-Dawley rat plasma assessed as HST5040-carnitine metabolite formation at 10 mg/kg administered as single dose by LC/MS analysis; type: ADME, organism-based; settings: in vivo
[3] = Half life in Sprague-Dawley rat blood at 10 mg/kg, po by quantitative whole-body autoradiography; type: ADME, organism-based; settings: in vivo
[4] = Volume of distribution in Sprague-Dawley rat at 10 mg/kg, iv; type: ADME, organism-based; settings: in vivo
[5] = Tmax in Sprague-Dawley rat at 50 mg/kg, po; type: ADME, organism-based; settings: in vivo
[6] = Half life in CD1 mouse at 30 mg/kg, iv; type: ADME, organism-based; settings: in vivo
[7] = AUC (0 to infinity) in Sprague-Dawley rat at 50 mg/kg, po; type: ADME, organism-based; parameters: time infinity, route oral, dose 50 mg/kg; settings: in vivo
[8] = Induction of toxicity in minipig assessed as increase in number of cells with cytoplasmic vacuoles in renal tubules at >=50 mg/kg/day; type: organism-based, Sus scrofa domesticus; settings: pig, in vivo
[9] = Reduction of acetyl-CoA in human hepatocytes derived from methylmalonic acidemia patient at 30 uM pretreated for 30 mins followed by 13C-isoleucine addition and measured after 1 hr by MS/MS analysis relative to control; type: functional, Hepatocyte; parameters: scale not given: the % may be the effect or the level left; settings: time 90 min, 1.5 h
[10] = AUC (0 to infinity) in Sprague-Dawley rat at 10 mg/kg, po; type: ADME, organism-based; parameters: time infinity, route oral, dose 10 mg/kg; settings: in vivo
[11] = Half life in CD1 mouse at 300 mg/kg, po; type: ADME, organism-based; settings: in vivo
[12] = Reduction of 2-Methylcitric acid in human hepatocytes derived from propionic acidemia patient pretreated for 30 mins followed by 13C-isoleucine addition and measured after 1 hr by MS/MS analysis; type: functional, cell-based; settings: hepatocyte
[13] = Reduction of CoASH in human hepatocytes derived from methylmalonic acidemia at 30 uM pretreated for 30 mins followed by 13C-isoleucine addition and measured after 1 hr by MS/MS analysis; type: functional, Hepatocyte; parameters: scale not given: the % may be the effect or the level left; settings: time 90 min, 1.5 h
[14] = Cmax in CD1 mouse at 30 mg/kg, po; type: ADME, organism-based; parameters: route oral, dose 30 mg/kg; settings: in vivo
[15] = AUC (0 to infinity) in Gottingen minipig at 10 mg/kg, po using radiolabeled compound by quantitative whole-body autoradiography; type: ADME, organism-based, Sus scrofa domesticus; parameters: time infinity, route oral, dose 10 mg/kg; settings: pig, in vivo
[16] = Reduction of acetyl-CoA in human hepatocytes pretreated for 30 mins followed by 13C-isoleucine addition and measured after 1 hr by MS/MS analysis; type: functional, Hepatocyte; parameters: scale not given: the % may be the effect or the level left; settings: dose 30 µM, 0.5 h
Cytochrome P450 3A4 = Cytochrome P450 3A4 (Homo sapiens, UniProt P08684); experiment: Time-dependent inhibition of CYP3A4 in human liver microsomes using midazolam as substrate preincubated for 30 mins; type: ADME
[17] = Induction of toxicity in minipig assessed as increase in vacuole size in the epithelial cells of renal tubules at >=50 mg/kg; type: organism-based, Sus scrofa domesticus; settings: pig, in vivo
[18] = Protein binding in human plasma at 40 uM incubated for 4 hrs by equilibrium dialysis; type: ADME, cell-free
[19] = Half life in Sprague-Dawley rat at 10 mg/kg, iv; type: ADME, organism-based; settings: in vivo
[20] = Induction of toxicity in minipig assessed as increase in serum albumin concentration at 300 mg/kg/day; type: organism-based, Sus scrofa domesticus; settings: pig, in vivo
[21] = Tmax in Sprague-Dawley rat at 200 mg/kg, po; type: ADME, organism-based; settings: in vivo
[22] = Cmax in Sprague-Dawley rat at 200 mg/kg, po; type: ADME, organism-based; parameters: route oral, dose 200 mg/kg; settings: in vivo
[23] = Reduction of propionyl carnitine in human hepatocytes derived from propionic acidemia patient at 30 uM pretreated for 30 mins followed by 13C-isoleucine addition and measured after 1 hr by MS/MS analysis relative to control; type: functional, Hepatocyte; parameters: scale not given: the % may be the effect or the level left; settings: time 90 min, 1.5 h
[24] = molecular target: ATP-dependent translocase ABCB1 (Homo sapiens, UniProt P08183); experiment: Inhibition of human MDR1 assessed as reduction in NMQ transport at 24000 uM relative to control
[25] = Dissociation constant, pKa of the compound; type: physicochemical
[26] = Tmax in CD1 mouse at 300 mg/kg, po; type: ADME, organism-based; settings: in vivo
[27] = AUC (0 to infinity) in Sprague-Dawley rat at 10 mg/kg, iv; type: ADME, organism-based; parameters: route intravenous, time infinity, dose 10 mg/kg; settings: in vivo
[28] = Drug metabolism in Sprague-Dawley rat plasma assessed as HST5040-glucuronide metabolite formation at 10 mg/kg administered as single dose by LC/MS analysis; type: ADME, organism-based; settings: in vivo
[29] = Cmax in Gottingen minipig at 10 mg/kg, po using radiolabeled compound by quantitative whole-body autoradiography; type: ADME, organism-based, Sus scrofa domesticus; parameters: route oral, dose 10 mg/kg; settings: pig, in vivo
[30] = Cmax in CD1 mouse at 30 mg/kg, iv; type: ADME, organism-based; parameters: route intravenous, dose 30 mg/kg; settings: in vivo
[31] = Drug metabolism in mouse hepatocytes assessed as formation of 2,2-dimethylbutanoic acid-CoA incubated for 1 hrs by MS/MS analysis; type: ADME, cell-based; settings: Hepatocyte
[32] = molecular target: T1, Organic anion transporter 3 (Homo sapiens, UniProt Q8TCC7); experiment: Inhibition of human OAT3 assessed as reduction in OAT3-mediated tenofovir transport
T1 sequence (Q8TCC7 whole entry): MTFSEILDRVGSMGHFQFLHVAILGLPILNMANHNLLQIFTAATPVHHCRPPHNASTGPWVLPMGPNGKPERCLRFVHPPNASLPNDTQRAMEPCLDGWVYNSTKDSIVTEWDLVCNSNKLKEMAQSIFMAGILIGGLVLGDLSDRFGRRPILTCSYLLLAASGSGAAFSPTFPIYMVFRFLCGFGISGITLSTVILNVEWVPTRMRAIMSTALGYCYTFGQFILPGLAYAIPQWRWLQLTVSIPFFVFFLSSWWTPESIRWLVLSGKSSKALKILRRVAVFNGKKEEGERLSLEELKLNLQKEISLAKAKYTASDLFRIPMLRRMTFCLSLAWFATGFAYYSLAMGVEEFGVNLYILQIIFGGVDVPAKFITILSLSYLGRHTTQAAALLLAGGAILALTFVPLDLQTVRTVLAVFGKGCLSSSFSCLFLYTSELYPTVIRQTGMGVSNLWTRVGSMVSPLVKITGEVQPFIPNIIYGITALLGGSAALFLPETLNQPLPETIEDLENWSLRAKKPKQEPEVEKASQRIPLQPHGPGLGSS

[33] = Induction of toxicity in minipig assessed as increase in albumin to […] ratio at 300 mg/kg/day; type: organism-based, Sus scrofa domesticus; settings: pig, in vivo
[34] = Drug metabolism in mini-pig hepatocytes assessed as formation of 2,2-dimethylbutanoic acid-CoA incubated for 1 hrs by MS/MS analysis; type: ADME, cell-based, Sus scrofa domesticus; settings: Sus scrofa, Hepatocyte
[35] = Reduction of methylmalonyl-CoA in human hepatocytes derived from methylmalonic acidemia at 30 uM pretreated for 30 mins followed by 13C-isoleucine addition and measured after 1 hr by MS/MS analysis relative to control; type: functional, Hepatocyte; parameters: scale not given: the % may be the effect or the level left; settings: time 90 min, 1.5 h

Cytochrome P450 3A4, sequence (P08684 whole entry): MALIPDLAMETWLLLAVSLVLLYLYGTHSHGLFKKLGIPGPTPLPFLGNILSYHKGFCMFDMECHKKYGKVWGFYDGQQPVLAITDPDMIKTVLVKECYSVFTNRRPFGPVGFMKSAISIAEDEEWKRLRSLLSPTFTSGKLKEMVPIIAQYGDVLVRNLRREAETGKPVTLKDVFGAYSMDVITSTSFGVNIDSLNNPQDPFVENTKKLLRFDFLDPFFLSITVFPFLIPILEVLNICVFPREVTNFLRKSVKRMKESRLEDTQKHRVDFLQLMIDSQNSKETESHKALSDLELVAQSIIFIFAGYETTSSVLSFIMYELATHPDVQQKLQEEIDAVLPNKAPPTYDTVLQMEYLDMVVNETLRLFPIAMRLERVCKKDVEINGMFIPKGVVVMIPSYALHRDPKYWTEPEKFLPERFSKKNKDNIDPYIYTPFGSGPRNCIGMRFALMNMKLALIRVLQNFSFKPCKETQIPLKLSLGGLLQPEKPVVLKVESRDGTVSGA
ATP-dependent translocase ABCB1, sequence (P08183 whole entry): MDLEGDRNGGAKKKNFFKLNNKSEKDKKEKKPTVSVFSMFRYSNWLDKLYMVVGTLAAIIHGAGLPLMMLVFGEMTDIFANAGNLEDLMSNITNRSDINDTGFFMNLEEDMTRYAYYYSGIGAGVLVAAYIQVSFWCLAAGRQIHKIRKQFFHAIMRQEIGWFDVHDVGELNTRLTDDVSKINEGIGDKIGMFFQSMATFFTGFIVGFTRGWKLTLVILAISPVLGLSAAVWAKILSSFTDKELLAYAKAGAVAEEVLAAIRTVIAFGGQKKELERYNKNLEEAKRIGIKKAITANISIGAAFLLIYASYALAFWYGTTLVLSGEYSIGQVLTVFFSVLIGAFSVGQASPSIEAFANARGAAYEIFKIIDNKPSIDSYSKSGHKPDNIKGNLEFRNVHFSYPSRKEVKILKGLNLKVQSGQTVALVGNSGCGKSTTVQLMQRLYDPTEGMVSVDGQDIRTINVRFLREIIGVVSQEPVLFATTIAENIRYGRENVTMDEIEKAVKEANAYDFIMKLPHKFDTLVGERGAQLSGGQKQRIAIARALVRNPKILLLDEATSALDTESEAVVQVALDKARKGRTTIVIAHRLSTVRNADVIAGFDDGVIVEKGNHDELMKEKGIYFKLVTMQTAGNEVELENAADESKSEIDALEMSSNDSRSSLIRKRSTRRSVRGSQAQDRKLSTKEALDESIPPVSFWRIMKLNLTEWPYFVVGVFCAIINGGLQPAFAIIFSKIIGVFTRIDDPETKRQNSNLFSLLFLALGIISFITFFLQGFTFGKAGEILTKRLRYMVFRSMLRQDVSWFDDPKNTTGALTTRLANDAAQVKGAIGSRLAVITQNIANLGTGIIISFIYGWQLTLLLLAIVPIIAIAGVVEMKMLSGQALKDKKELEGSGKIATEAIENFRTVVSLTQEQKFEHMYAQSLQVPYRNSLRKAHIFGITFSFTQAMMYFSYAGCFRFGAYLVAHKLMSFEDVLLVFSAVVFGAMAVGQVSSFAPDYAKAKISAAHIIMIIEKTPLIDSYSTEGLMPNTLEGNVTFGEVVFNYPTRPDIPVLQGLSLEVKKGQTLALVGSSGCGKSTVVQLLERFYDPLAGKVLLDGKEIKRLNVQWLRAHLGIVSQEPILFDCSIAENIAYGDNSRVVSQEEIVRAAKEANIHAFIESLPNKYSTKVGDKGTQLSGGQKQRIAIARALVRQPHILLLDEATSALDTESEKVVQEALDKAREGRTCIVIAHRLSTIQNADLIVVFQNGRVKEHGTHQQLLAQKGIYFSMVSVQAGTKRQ

With `CCC(C)(C)C(=O)O` [DIMEBUTIC ACID] the Drug excretion [1] was 77.4%, the Drug metabolism [2] was “Metabolite_Detected” and the t1/2 [3] was 150 min. The Vd [4] was 1.22 L/kg, the Tmax [5] was 20 min and the half-life [6] was 49.9 min. The AUC(0-inf) [7] was 33100 ng·h/mL, the Activity [8] was “Toxic” and the Activity [9] was 13.5%. It also gave an AUC(0-inf) [10] of 5520 ng·h/mL, a half-life [11] of 115 min and an EC50 [12] of 1.1 µM. The Activity [13] was -22.3%, the Cmax [14] was 33.7 µg/mL and the AUC [15] was 91300 ng·h/mL. The Activity [16] was 20%, the IC50 (Cytochrome P450 3A4) was over 10000 µM and the Activity [17] was “Toxic”. For the same compound, the PPB [18] was 0%, the half-life [19] was 236 min and the Activity [20] was “Toxic”. It also gave a Tmax [21] of 25 min, a Cmax [22] of 113 µg/mL and an Activity [23] of -69.4%. For the same compound, the “inhibition (INH)” value [24] was “Not Active”, the pKa [25] was 4.4 and the Tmax [26] was 30 min. The AUC(0-inf) [27] was 9670 ng·h/mL, the Drug metabolism [28] was “Metabolite_Detected” and the Cmax [29] was 16.1 µg/mL. The Cmax [30] was 59.4 µg/mL, the EC50 [31] was 130 µM and the IC50 [32] was 3510 µM. The Activity [33] was “Toxic”, the EC50 [34] was 8.3 µM and the Activity [35] was -55%.
